Measurements taken from US20230310388A1, “Methods and Compositions for Treating Fungal Infections” (Neoculi Pty Ltd, priority 2020, published 2023).
Values after ≈ are worked out from the molar mass of the structure shown. One block for each molecule: values may come before it.

Tests used:
[1] = tested on: Candida albicans; test: CLSI broth microdilution MIC (Example 3); type: cell-based
Protocol: (§1) Antifungal minimum inhibitory concentration (MIC) testing was undertaken as recommended by the CLSI. Briefly, antifungal susceptibility tests were performed for amphotericin B, robenidine (NCL812) and 5 robenidine analogs (NCL062, NCL195, NCL219, NCL259, NCL265) by standard broth microdilution method (CLSI) in RPMI 1640. Various concentrations (ranging from high to low) of the selected compounds were prepared in RPMI 1640 medium by double dilution in 96-well microtitre plates. Each well contained an inoculum of approximately 2×10^3 cells/mL. The wells without addition of drugs served as negative (no inoculum) and positive (inoculum only) growth controls. Microtitre plates were incubated at 35° C. for 24-48 hours. […] Antifungal MICs were determined for each isolate in duplicate; if the values obtained were different, the MIC test was repeated a third time. Antifungal susceptibility tests were performed for amphotericin B and NCL analogs by standard broth microdilution method (CLSI). Briefly, various concentrations (ranging from high to low) of the selected compounds were prepared in RPMI 1640 medium by double dilution in the 96-well plates. Each well contained an inoculum of approximately 2×10^3 cells/mL. The wells without addition of drugs served as a negative control. Micro plates were incubated at 35° C. for 48 hour and read spectrophotometrically at 600 nm, using a microplate reader (Multiskan-EX; Thermo Elect. Corp., USA).

[2] = tested on: Candida parapsilosis; test: CLSI broth microdilution MIC (Example 3); type: cell-based; details: Candida parapsilosis ATCC 22019
Protocol: as §1

[3] = tested on: Candida albicans; test: CLSI broth microdilution MIC (Example 4); type: cell-based
Protocol: (§2) Antifungal minimum inhibitory concentration (MIC) testing was undertaken as recommended by the CLSI. Briefly, antifungal susceptibility tests were performed for amphotericin B, robenidine (NCL812) and robenidine (NCL) analogs (NCL004, NCL020, NCL023, NCL024, NCL062, NCL094, NCL097, NCL110, NCL113, NCL114, NCL115, NCL135, NCL139, NCL180, NCL181, NCL195, NCL219, NCL220, NCL228, NCL247, NCL250, NCL259, NCL260, NCL263, NCL265, NCL269, NCL274) by standard broth microdilution method (CLSI) in RPMI 1640. Various concentrations (ranging from high to low) of the selected compounds were prepared in RPMI 1640 medium by double dilution in 96-well microtitre plates. Each well contained an inoculum of approximately 2×10^3 cells/mL. The wells without addition of drugs served as negative (no inoculum) and positive (inoculum only) growth controls. Microtitre plates were incubated at 35° C. for 24-48 hours. […] Antifungal MICs were determined for each isolate in duplicate; if the values obtained were different, the MIC test was repeated a third time.

[4] = tested on: Cryptococcus neoformans; test: CLSI broth microdilution MIC (Example 4); type: cell-based
Protocol: as §2

[5] = tested on: Candida albicans; test: CLSI broth microdilution MIC (Example 5); type: cell-based
Protocol: as §2, with “robenidine” for “robenidine (NCL)”, “(NCL23, NCL24, NCL97,” for “(NCL004, NCL020, NCL023, NCL024, NCL062, NCL094, NCL097, NCL110,”, “NCL113,” for “NCL113, NCL114,”, “NCL115,” for “NCL115, NCL135, NCL139, NCL180, NCL181,”, “NCL220,” for “NCL220, NCL228, NCL247, NCL250,”, “NCL265)” for “NCL260, NCL263, NCL265, NCL269, NCL274)”

[6] = tested on: Cryptococcus neoformans; test: CLSI broth microdilution MIC (Example 5); type: cell-based
Protocol: as §2, with “robenidine” for “robenidine (NCL)”, “(NCL23, NCL24, NCL97,” for “(NCL004, NCL020, NCL023, NCL024, NCL062, NCL094, NCL097, NCL110,”, “NCL113,” for “NCL113, NCL114,”, “NCL115,” for “NCL115, NCL135, NCL139, NCL180, NCL181,”, “NCL220,” for “NCL220, NCL228, NCL247, NCL250,”, “NCL265)” for “NCL260, NCL263, NCL265, NCL269, NCL274)”

[7] = tested on: Candida albicans; test: CLSI broth microdilution MIC (Example 6); type: cell-based
Protocol: (§3) Antifungal minimum inhibitory concentration (MIC) testing was undertaken as recommended by the CLSI (1). Briefly, antifungal susceptibility tests were performed for amphotericin B, robenidine (NCL812) and 10 robenidine analogs (NCL023, NCL024, NCL097, NCL113, NCL115, NCL195, NCL219, NCL220, NCL259, NCL265) by standard broth microdilution method (CLSI) in RPMI 1640. Various concentrations (ranging from high to low) of the selected compounds were prepared in RPMI 1640 medium by double dilution in 96-well microtitre plates. Each well contained an inoculum of approximately 2×10^3 cells/mL. The wells without addition of drugs served as negative (no inoculum) and positive (inoculum only) growth controls. Microtitre plates were incubated at 35° C. for 24-48 hours. […] Antifungal MICs were determined for each isolate in duplicate; if the values obtained were different, the MIC test was repeated a third time.

[8] = tested on: Cryptococcus neoformans; test: CLSI broth microdilution MIC (Example 6); type: cell-based
Protocol: as §3

[9] = tested on: C. gattii; test: CLSI broth microdilution MIC (Example 6); type: cell-based, Cryptococcus gattii
Protocol: as §3

[10] = tested on: Candida albicans ATCC14053; test: Broth micro-dilution screen at 16 μg/mL and MIC (Example 9); type: cell-based
Protocol: The antifungal activity of 201 NCL analogs against Candida albicans ATCC14053 in vitro was investigated. A broth micro-dilution method was used, according to CLSI guidelines as described. NCL analogs were dissolved in DMSO and originally screened at a single concentration of 16 μg/mL.

[11] = Candida albicans ATCC 90028, 1st
[12] = Candida albicans ATCC 90028, 2nd
[13] = clinical isolate C. albicans 12-93301752 Azole Resistant
[14] = clinical isolate C. albicans 14-90045999 Azole Resistant
[15] = clinical isolate C. albicans 15-45171061
[16] = clinical isolate C. albicans 15-91329871
[17] = clinical isolate C. albicans 16-24136919 Azole Resistant
[18] = clinical isolate C. albicans 16-46177400
[19] = clinical isolate C. albicans 16-90050810
[20] = clinical isolate C. albicans 16-90054237
[21] = clinical isolate C. albicans 18-144-00196
[22] = clinical isolate C. albicans 18-148-08188 Azole Resistant
[23] = human clinical isolate C. neoformans serotype A/D hybrid
[24] = human clinical isolate C. neoformans var grubii 16-90050434
[25] = human clinical isolate C. neoformans var grubii 17-90028233
[26] = human clinical isolate C. neoformans var grubii 17-93996464
[27] = human clinical isolate C. neoformans var grubii 17-93996964
[28] = human clinical isolate C. gatti 17-90232099
[29] = human clinical isolate C. gattii 16-90050373
[30] = human clinical isolate C. gattii 17-90028211
[31] = human clinical isolate C. gattii 17-90028217
[32] = human clinical isolate C. gattii 17-90028242

- MIC [1, 11]: 0.25 µg/mL (≈ 0.271 µM)
- MIC [1, 12]: 0.5 µg/mL (≈ 0.541 µM)
- MIC ([1]; Candida albicans, 1st): 0.5 µg/mL (≈ 0.541 µM)
- MIC ([1]; Candida albicans, 2nd): 1 µg/mL (≈ 1.08 µM)
- MIC ([2]; 1st): 0.5 µg/mL (≈ 0.541 µM)
- MIC ([2]; 2nd): 0.5 µg/mL (≈ 0.541 µM)
- MIC at 24-48 hours ([3]; Candida albicans ATCC 90028): 0.5 µg/mL (≈ 0.541 µM)
- MIC at 24-48 hours ([3]; Candida albicans SA3): 2 µg/mL (≈ 2.16 µM)
- MIC at 24-48 hours ([4]; Cryptococcus neoformans SA1): 0.3 µg/mL (≈ 0.325 µM)
- MIC at 24-48 hours ([4]; Cryptococcus neoformans SA2): 0.3 µg/mL (≈ 0.325 µM)
- MIC ([5]; C. albicans SA3): 2 µg/mL (≈ 2.16 µM)
- MIC ([5]; Candida albicans ATCC 90028): 0.5 µg/mL (≈ 0.541 µM)
- MIC [5, 13]: 0.5 µg/mL (≈ 0.541 µM)
- MIC [5, 14]: 0.25 µg/mL (≈ 0.271 µM)
- MIC [5, 15]: 0.125 µg/mL (≈ 0.135 µM)
- MIC [5, 16]: 0.125 µg/mL (≈ 0.135 µM)
- MIC [5, 17]: 0.5 µg/mL (≈ 0.541 µM)
- MIC [5, 18]: 0.25 µg/mL (≈ 0.271 µM)
- MIC [5, 19]: 0.125 µg/mL (≈ 0.135 µM)
- MIC [5, 20]: 0.125 µg/mL (≈ 0.135 µM)
- MIC [5, 21]: 0.25 µg/mL (≈ 0.271 µM)
- MIC [5, 22]: 0.5 µg/mL (≈ 0.541 µM)
- MIC ([6]; Cryptococcus neoformans SA1): 0.25 µg/mL (≈ 0.271 µM)
- MIC ([6]; Cryptococcus neoformans SA2): 0.25 µg/mL (≈ 0.271 µM)
- MIC ([7]; C. albicans SA3): 2 µg/mL (≈ 2.16 µM)
- MIC ([7]; Candida albicans ATCC 90028): 0.5 µg/mL (≈ 0.541 µM)
- MIC ([8]; Cryptococcus neoformans SA1): 0.3 µg/mL (≈ 0.325 µM)
- MIC ([8]; Cryptococcus neoformans SA2): 0.3 µg/mL (≈ 0.325 µM)
- MIC [8, 23]: 0.5 µg/mL (≈ 0.541 µM)
- MIC [8, 24]: 1 µg/mL (≈ 1.08 µM)
- MIC [8, 25]: 2 µg/mL (≈ 2.16 µM)
- MIC [8, 26]: 1 µg/mL (≈ 1.08 µM)
- MIC [8, 27]: 1 µg/mL (≈ 1.08 µM)
- MIC [9, 28]: 1 µg/mL (≈ 1.08 µM)
- MIC [9, 29]: 1 µg/mL (≈ 1.08 µM)
- MIC [9, 30]: 1 µg/mL (≈ 1.08 µM)
- MIC [9, 31]: 0.5 µg/mL (≈ 0.541 µM)
- MIC [9, 32]: 1 µg/mL (≈ 1.08 µM)
SMILES: C[C@@H]1[C@H](O)[C@@H](C)/C=C/C=C/C=C/C=C/C=C/C=C/C=C/[C@H](O[C@@H]2O[C@H](C)[C@@H](O)[C@H](N)[C@@H]2O)C[C@@H]2O[C@](O)(C[C@@H](O)C[C@@H](O)[C@H](O)CC[C@@H](O)C[C@@H](O)CC(=O)O[C@H]1C)C[C@H](O)[C@H]2C(=O)O [Amphotericin B, reference compound]

- MIC [1, 11]: >32 µg/mL
- MIC [1, 12]: >32 µg/mL
- MIC ([1]; Candida albicans, 1st): >32 µg/mL
- MIC ([1]; Candida albicans, 2nd): >32 µg/mL
- MIC ([2]; 1st): >32 µg/mL
- MIC ([2]; 2nd): >32 µg/mL
- MIC at 24-48 hours ([3]; Candida albicans ATCC 90028): 32 µg/mL
- MIC at 24-48 hours ([3]; Candida albicans SA3): 16 µg/mL
- MIC at 24-48 hours ([4]; Cryptococcus neoformans SA1): 2 µg/mL
- MIC at 24-48 hours ([4]; Cryptococcus neoformans SA2): 2 µg/mL
- MIC ([5]; C. albicans SA3): 16 µg/mL
- MIC ([5]; Candida albicans ATCC 90028): 32 µg/mL
- MIC [5, 13]: >16 µg/mL
- MIC [5, 14]: 4 µg/mL
- MIC [5, 15]: 8 µg/mL
- MIC [5, 16]: >16 µg/mL
- MIC [5, 17]: >16 µg/mL
- MIC [5, 18]: >16 µg/mL
- MIC [5, 19]: >16 µg/mL
- MIC [5, 20]: >16 µg/mL
- MIC [5, 21]: >16 µg/mL
- MIC [5, 22]: >16 µg/mL
- MIC ([6]; Cryptococcus neoformans SA1): 2 µg/mL
- MIC ([6]; Cryptococcus neoformans SA2): 2 µg/mL
- MIC ([7]; C. albicans SA3): 16 µg/mL
- MIC ([7]; Candida albicans ATCC 90028): 32 µg/mL
- MIC ([8]; Cryptococcus neoformans SA1): 2 µg/mL
- MIC ([8]; Cryptococcus neoformans SA2): 2 µg/mL
- MIC [8, 23]: >32 µg/mL
- MIC [8, 24]: >32 µg/mL
- MIC [8, 25]: >32 µg/mL
- MIC [8, 26]: >32 µg/mL
- MIC [8, 27]: >32 µg/mL
- MIC [9, 28]: >32 µg/mL
- MIC [9, 29]: >32 µg/mL
- MIC [9, 30]: >32 µg/mL
- MIC [9, 31]: >32 µg/mL
- MIC [9, 32]: >32 µg/mL
- MIC ([10]; C. albicans ATCC14053, test range 0.25-64 μg/mL, duplicate): >64 µg/mL
SMILES: C/C(=N\NC(=N)N/N=C(\C)c1ccc(C(C)(C)C)cc1)c1ccc(C(C)(C)C)cc1.Cl [NCL219]
- antifungal activity against the two isolates of Candida albicans ([3]; summary in words): high antifungal activity
- activity against one or more isolates of Cryptococcus neoformans and Candida albicans ([5]; summary in words): highly active
- Screen at 16 μg/mL ([10]; single concentration 16 μg/mL, Growth or No growth of C. albicans ATCC14053): Growth
